How the values were obtained:
α-glucosidase = α-glucosidase inhibition (PNPG); format: biochemical, Saccharomyces cerevisiae; settings: at 200 µg/mL
Experimental: 50 µL of phosphate buffer (0.01 M pH 6.9), 10 µL of sample solution, 50 µL of α-glucosidase from Saccharomyces cerevisiae in phosphate buffer (0.01 M pH 6.0) and 25 µL of PNPG (4-N-nitrophenyl-α-d-glucopyranoside) in phosphate buffer (0.01 M pH 6.9) were mixed in a 96-well microplate. Then the solution was incubated for 20 min at 37 °C.

α-amylase = target: T1, α-amylase (Sus scrofa, UniProt P00690); assay: α-amylase inhibition (starch-iodine method); format: biochemical, porcine
T1 construct: host or cells: porcine pancreas
T1 sequence (P00690 16-511): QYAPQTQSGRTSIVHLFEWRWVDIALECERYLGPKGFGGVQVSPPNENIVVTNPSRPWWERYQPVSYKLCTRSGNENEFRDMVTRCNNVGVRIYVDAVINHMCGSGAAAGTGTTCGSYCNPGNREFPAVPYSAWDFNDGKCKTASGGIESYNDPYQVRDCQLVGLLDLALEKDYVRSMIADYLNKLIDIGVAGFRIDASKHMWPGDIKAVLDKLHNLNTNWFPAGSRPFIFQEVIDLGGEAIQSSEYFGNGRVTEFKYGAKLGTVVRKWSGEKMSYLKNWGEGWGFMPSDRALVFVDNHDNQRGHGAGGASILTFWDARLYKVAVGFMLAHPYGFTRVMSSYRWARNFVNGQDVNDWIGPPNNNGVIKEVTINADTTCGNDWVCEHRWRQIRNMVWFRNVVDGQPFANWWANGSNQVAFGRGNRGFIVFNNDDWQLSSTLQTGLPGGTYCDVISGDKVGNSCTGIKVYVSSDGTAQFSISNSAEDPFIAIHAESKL
Experimental: The α-amylase inhibitory activity was evaluated by using starch-iodine method[30]. The enzyme α-amylase from porcine pancreas was used and enzyme solution was prepared with phosphate buffer (20 mM pH = 6.9 phosphate buffer prepared with 6 mM NaCl). Then, 50 µL of α-amylase and 25 µL of sample solutions were mixed in a 96-well microplate. The mixture was pre-incubated for 10 min at 37 °C. Then, 50 µL of starch solution (0.05%) was added and incubated for 10 min at 37 °C. Following incubation, the reaction was completed by adding HCl (0.1 M, 25 µL) and Lugol (100 µL) solutions, and the absorbance was recorded at 565 nm.
(§1) IC50 values were calculated using a graph plotted between concentration (µg/mL) and percentage inhibition (%).

[1] = ABTS cation radical scavenging assay; settings: for ABTS assay Inhibition (%): at 200 µg/mL
Experimental: (§2) Antioxidant activities of all extracts were assessed by using different methods including β-carotene-linoleic acid assay, DPPH assay, ABTS assay, CUPRAC assay and Metal chelating assay. […] The DPPH assay was performed by using a spectrophotometer according to typical methods documented previously[23]. The ABTS^+assay was carried out as described previously by Re et al., (1999)[24]. The cupric reducing antioxidant capacity (CUPRAC) was evaluated by following the method published Apak et al., (2004)[25]. α-tocopherol and butylated hydroxy anisole (BHA) were used as antioxidant standards to compare the β-carotene-linoleic acid, DPPH, ABTS and CUPRAC assays. The metal chelating assay of extracts for Fe^+2 was performed by using a spectrophotometer as the method reported by Tel et al., (2012)[26]. Ethylenediaminetetraacetic acid (EDTA) was used as a standard.
(§3) IC50 values were calculated using a graph plotted between concentration (µg/mL) and percentage inhibition (%). A graph that plotted absorbance against concentration (µg/mL) was used to determine A0.50 values.

[2] = DPPH free radical scavenging assay; settings: for DPPH assay Inhibition (%): at 200 µg/mL
Experimental: as §2, §3

[3] = β-carotene-linoleic acid assay (inhibition of lipid peroxidation); settings: for β-Carotene-linoleic acid assay Inhibition (%): at 200 µg/mL
Experimental: as §2, §3

[4] = CUPRAC (cupric reducing antioxidant capacity) assay; settings: for CUPRAC assay Absorbance: at 200 µg/mL; for CUPRAC assay A0.50: concentration giving absorbance of 0.50
Experimental: as §2, §3

BChE = target: T2, BChE (Equus caballus, UniProt P81908); assay: Butyrylcholinesterase inhibition (DTNB spectrophotometric); format: biochemical, horse
T2 construct: host or cells: equine serum
T2 sequence (P81908 whole entry): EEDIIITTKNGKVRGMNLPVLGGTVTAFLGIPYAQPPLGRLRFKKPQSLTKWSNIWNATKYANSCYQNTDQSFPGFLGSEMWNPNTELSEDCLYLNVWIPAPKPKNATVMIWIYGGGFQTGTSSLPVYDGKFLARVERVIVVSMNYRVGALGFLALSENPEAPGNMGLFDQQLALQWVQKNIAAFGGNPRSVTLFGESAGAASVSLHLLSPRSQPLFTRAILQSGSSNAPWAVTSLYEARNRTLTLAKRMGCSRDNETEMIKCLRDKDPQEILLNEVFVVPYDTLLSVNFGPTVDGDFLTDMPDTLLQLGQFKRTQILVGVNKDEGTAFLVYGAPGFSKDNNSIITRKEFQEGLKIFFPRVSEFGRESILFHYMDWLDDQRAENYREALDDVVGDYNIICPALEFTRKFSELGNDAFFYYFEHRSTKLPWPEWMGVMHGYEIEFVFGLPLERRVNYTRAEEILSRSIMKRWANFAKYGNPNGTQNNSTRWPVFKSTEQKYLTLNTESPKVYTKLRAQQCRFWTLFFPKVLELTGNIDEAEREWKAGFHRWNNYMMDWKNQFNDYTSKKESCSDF
Experimental: The inhibitory activities of acetylcholinesterase and butyrylcholinesterase enzymes of the extracts were determined using spectrophotometer following the protocol described by Deveci et al., (2019) with slight modifications[27]. Acetylthiocholine iodide and butyrylthiocholine chloride were utilized as reaction substrates, while AChE from electric eels and BChE from horse serum were applied. Employing DTNB (5,5′-Dithio-bis(2-nitrobenzoic) acid), the cholinesterase activity was measured. In a nutshell, 130 µL of 100 mM sodium phosphate buffer (pH 8.0), 10 µL of sample solution at different concentrations, and 20 µL of enzyme (AChE or BChE) solution in buffer were mixed and incubated for 15 min at 25 °C, and 20 µL of 0.5 mM DTNB was added. Following that, 0.71 mM, 20 µL of acetylthiocholine iodide or 0.2 mM, 20 µL of butyrylthiocholine chloride were added to initiate the reaction. Utilizing a 96-well microplate reader, the hydrolysis of these substrates was observed spectrophotometrically by the formation of a yellow 5-thio-2-nitrobenzoate anion at a wavelength of 412 nm.
as §3

tyrosinase = assay: Tyrosinase inhibition (L-DOPA substrate); format: biochemical; settings: at 200 µg/mL
Experimental: Tyrosinase enzyme inhibitory activity was measured by the spectrophotometric method as described by Masuda et al., (2005)[29]. L-DOPA was utilized as substrate of the reaction. 150 µL of sodium phosphate buffer (pH 6.8, 100 mM), 10 µL of sample and 20 µL of tyrosinase enzyme solution in buffer were mixed and incubated for 10 min at 37 °C. Following incubation, 20 µL of L-DOPA was added. The absorbances in a 96-well microplate were monitored at 475 nm after 10 min of incubation at 37 °C.
as §1

urease = urease (Canavalia ensiformis, UniProt P07374); format: biochemical, jack bean
Sequence of urease (P07374 whole entry, looked up): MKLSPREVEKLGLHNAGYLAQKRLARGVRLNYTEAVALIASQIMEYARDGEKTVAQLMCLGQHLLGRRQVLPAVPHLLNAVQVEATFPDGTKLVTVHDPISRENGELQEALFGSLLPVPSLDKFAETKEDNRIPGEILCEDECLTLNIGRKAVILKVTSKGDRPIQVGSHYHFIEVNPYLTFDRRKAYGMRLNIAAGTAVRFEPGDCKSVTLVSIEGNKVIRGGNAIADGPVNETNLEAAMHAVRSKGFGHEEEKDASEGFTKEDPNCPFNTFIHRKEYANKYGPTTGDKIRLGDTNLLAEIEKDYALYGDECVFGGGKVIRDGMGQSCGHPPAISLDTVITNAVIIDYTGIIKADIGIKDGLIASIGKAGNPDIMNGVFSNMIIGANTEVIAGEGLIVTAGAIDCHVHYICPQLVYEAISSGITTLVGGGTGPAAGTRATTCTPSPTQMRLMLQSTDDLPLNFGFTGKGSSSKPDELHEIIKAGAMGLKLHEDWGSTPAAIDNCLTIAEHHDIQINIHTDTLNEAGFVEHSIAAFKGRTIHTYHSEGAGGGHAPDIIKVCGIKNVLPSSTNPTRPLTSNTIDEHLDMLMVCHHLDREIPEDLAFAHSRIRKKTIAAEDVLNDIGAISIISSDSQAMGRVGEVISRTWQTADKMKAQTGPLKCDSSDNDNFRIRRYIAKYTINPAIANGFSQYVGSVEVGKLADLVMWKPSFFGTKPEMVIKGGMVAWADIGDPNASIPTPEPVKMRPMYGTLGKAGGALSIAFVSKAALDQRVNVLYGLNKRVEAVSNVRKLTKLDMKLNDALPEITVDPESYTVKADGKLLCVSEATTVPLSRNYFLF

Experimental for Metal chelating assay: as §2, §3

Which “α-glucosidase Inhibition (%)” value (α-glucosidase) does the source give for C[C@H]1O[C@H](O[C@H]2[C@H](O)[C@@H](O)[C@@H](O[C@H]3[C@H](O)[C@@H](O)C(O)O[C@@H]3CO)O[C@@H]2CO)[C@H](O)[C@@H](O)[C@@H]1N[C@H]1C=C(CO)[C@@H](O)[C@H](O)[C@H]1O (stereo partly drawn) [Acarbose] here?
Its value is 56.70 ± 0.75%.

What about the inhibition at 200 µg/mL (α-amylase) of the same molecule?
The inhibition at 200 µg/mL was 82.1 ± 0.27%.

With COc1ccc(O)c(C(C)(C)C)c1 [BHA, butylated hydroxyanisole] as the molecule, how does the “ABTS assay IC50” value [1] read?
The value was 12.70 ± 0.10 µg/mL.

What about the “ABTS assay Inhibition (%)” value [1] of the same molecule?
Its value is 88.93 ± 0.21%.

And the “DPPH assay IC50” value [2]?
The value was 19.50 ± 0.30 µg/mL.

What about the “DPPH assay Inhibition (%)” value [2] of the same molecule?
The value was 87.90 ± 0.44%.

What about the “β-Carotene-linoleic acid assay IC50” value [3] of the same molecule?
The value was 1.50 ± 0.03 µg/mL.

And the “β-Carotene-linoleic acid assay Inhibition (%)” value [3]?
Its value is 96.20 ± 0.28%.

And the “CUPRAC assay Absorbance” value [4]?
The value was 2.45 ± 0.07.

What about the “CUPRAC assay A0.50” value [4] of the same molecule?
Its value is 25.40 ± 0.42 µg/mL.

What does the source list for O=C(O)CN(CCN(CC(=O)O)CC(=O)O)CC(=O)O [EDTA, ethylenediaminetetraacetic acid]?
Metal chelating assay IC50 (Metal chelating assay): 5.50 ± 0.25 µg/mL; Metal chelating assay Inhibition (%) (Metal chelating assay; at 200 µg/mL): 94.40 ± 0.35%

With COc1ccc2c3c1O[C@H]1C[C@@H](O)C=C[C@@]31CCN(C)C2 [Galantamine, galantamine] as the molecule, how does the inhibition at 200 µg/mL (BChE) read?
Its inhibition at 200 µg/mL is 79.43 ± 0.6%.

For O=c1cc(CO)occ1O [Kojic acid], which “Tyrosinase inhibitory Inhibition (%)” value (tyrosinase) is on record?
Its value is 83.54 ± 0.56%.

Which “Urease inhibitory IC50” value (urease) does the source give for NC(N)=S [Thiourea, thiourea] here?
The value was 8.20 ± 0.36 µg/mL.

What about the “Urease inhibitory Inhibition (%)” value (urease; at 200 µg/mL) of the same molecule?
The value was 87.37 ± 0.52%.

For Cc1c(C)c2c(c(C)c1O)CC[C@@](C)(CCC[C@H](C)CCC[C@H](C)CCCC(C)C)O2 [α-Tocopherol, α-tocopherol], which “ABTS assay IC50” value [1] is on record?
The value was 34.75 ± 0.55 µg/mL.

What about the “ABTS assay Inhibition (%)” value [1] of the same molecule?
Its value is 83.63 ± 0.34%.

And the “DPPH assay IC50” value [2]?
Its value is 38.20 ± 0.50 µg/mL.

And the “DPPH assay Inhibition (%)” value [2]?
The value was 84.25 ± 0.36%.

What about the “β-Carotene-linoleic acid assay IC50” value [3] of the same molecule?
Its value is 2.10 ± 0.05 µg/mL.

And the “β-Carotene-linoleic acid assay Inhibition (%)” value [3]?
The value was 95.73 ± 0.44%.

What about the “CUPRAC assay Absorbance” value [4] of the same molecule?
The value was 0.88 ± 0.03.

And the “CUPRAC assay A0.50” value [4]?
The value was 60.45 ± 0.30 µg/mL.

From article PMC11873045, “Phytochemical profiling and various biological activities of Phlomis tuberosa L” (Scientific Reports, 2025)
